# Patent US20220105150A1, “AMPHIPATHIC ALPHA-HELICAL ANTIMICROBIAL PEPTIDES TREAT INFECTIONS BY GRAM-NEGATIVE PATHOGENS” (priority 2019, published 2022)
# Read-outs that look alike come from different tables or passages of the source.
# What was measured:
# [1] = test system: Acinetobacter baumannii strains resistant to Polymyxin B and Colistin; conditions: 24 h
# [2] = test system: Acinetobacter baumannii isolates resistant to classical antibiotics; format: cell-based
# Description: Thus, shortening the number of carbon atoms between the side-chain amino group and the α-carbon atom from four (Lys) to one (diaminopropionic acid) had very little effect on antibacterial activity (Table 2). We also determined the antibacterial activity of our five AMPs against 20 additional Acinetobacter baumannii isolates from four continents, 12 different countries and 17 different cities that were resistant to 18 different antibiotics. […] Thus, it is very clear that changing the type of positively-charged residue on the polar face of these AMPs had very little effect on the antibacterial activities.
# A. baumannii strain 649 = format: cell-based, Acinetobacter baumannii; conditions: MH medium, no serum
# Experimental: Hemoglobin release was determined spectrophotometrically at 570 nm.
# Because only unbound AMP is available to interact with the therapeutic target, the extent of binding between AMPs and serum proteins can have significant effects on efficacy of these drugs. […] This assay estimates the in vivo bioavailability of our AMPs. […] An increase in MIC in the presence of serum is attributed to inhibition of antimicrobial activity due to binding to serum proteins.
# human red blood cells = assay: Hemolytic activity on human red blood cells
# Experimental: For comparison, the inventors also determined the hemolytic activity after 18 hours at 37° C. Hemolysis can be determined with red blood cells (RBC) from various species including human red blood cells (hRBC).
# The coupling procedure used 5 equivalents of Fmoc-D-amino acid or Fmoc-L-amino acid and HCTU (O-(1H-6-chlorobenzotriazole-1-yl)-1,1,3,3-tetramethyluronium hexafluorophosphate) and 6-Cl-HOBt (1-hydroxy-6-chloro-benztriazole) at 4.5 equivalents in DMF (Fisher Scientific, Denver, Colo.) and N-diisopropylethylamine (DIPEA) 10 equivalents (Oakwood Products, Inc., Estill, S.C.) in N-methyl-2-pyrrolidinone (NMP) (Fisher Scientific, Denver, Colo.) with the first and second couplings at room temperature for 30 min each. The deprotection procedure (removal of Fmoc protecting group) was carried out by treatment of the resin with 0.1 M HOBt (1-hydroxybenzotriazole) in DMF with 20% piperidine for 30 min. […] The resin was removed by filtration and peptide was precipitated with ice-cooled ethyl ether on ice for 15 min. Ether was decanted, the peptide was washed twice with ether and redissolved in acetonitrile/water (1:1, with 0.2% TFA) and the solution lyophilized to obtain the crude peptide. • Analytical and Preparative Purification by Reversed-Phase Chromatography: Analytical RP-HPLC: Column, Luna C18 (2), 250×4.6 mm I.D., 5 μm particle size, 100 Å pore size from Phenomenex (Torrance, Calif.). Run conditions: linear AB gradient (1% acetonitrile/min, starting from 2% acetonitrile) at a flow-rate of 1 ml/min, where eluent A is 0.2% aq. TFA and eluent B is 0.18% TFA in acetonitrile; temperature, 30° C. Preparative RP-HPLC: Peptides were dissolved in 0.2% aq. TFA containing 2% acetonitrile to a final concentration of 10 mg/ml. Following filtration through a 0.45 μm Millipore filter and subsequently through a 0.22 μm filter, the peptide solutions were loaded onto the column via multiple 20-ml injections into a 20-ml injection loop at a flow-rate of 10 ml/min. Column, Luna C18 (2), 250×30 mm I.D., 5 um particle size, 100 Å pore size from Phenomenex. Run conditions: 2% acetonitrile/min gradient up to an acetonitrile concentration 10% below that required to elute the peptide during analytical RP-HPLC, then shallow gradient elution (0.05% or 0.1% acetonitrile/min depending on the complexity of impurities near the product of interest on the analytical run of the crude peptide) at a flow-rate of 10 ml/min (same eluents as shown above for analytical RP-HPLC); at room temperature. • Temperature Profiling of Peptides on Reversed-phase HPLC to Measure Dimerization and Oligomerization: Purified peptides were analyzed on an Agilent 1200 series liquid chromatograph for temperature profiling using a Zorbax 300 SB-C8 column (150 mm×2.1 mm I.D.; 5 μm particle size, 300 Å pore size) from Agilent Technologies. […] Temperature profiling was carried out on peptide mixtures run at each temperature in 2° C. increments from 5° C. to 41° C. and 10° C. increments from 5° C. to 75° C. Twenty minutes was allowed between runs for temperature equilibration. • Characterization of Helical Structure: The mean residue molar ellipticities of peptides were determined by circular dichroism (CD) spectroscopy, using a Jasco J-815 spectropolarimeter (Jasco Inc. Easton, Md., USA) at 5° C. under KP buffer (50 mM NaH2PO4/Na2HPO4/100 mM KCl, pH 7.0) as well as in the presence of an α-helix inducing solvent, 2,2,2-trifluoroethanol, TFE, (50 mM NaH2PO4/Na2HPO4/100 mM KCl, pH 7.0 buffer/50% TFE). A 10-fold dilution of an approximately 500 μM stock solution of the peptide analogs was loaded into a 0.1 cm quartz cell and its ellipticity scanned from 195 to 250 nm.
# [3] = target: the molecule itself; assay: RP-HPLC temperature profiling (self-association)
# [4] = strains resistant to Polymyxin B and Colistin
# [5] = isolates resistant to classical antibiotics
molecule,measurement,setting,value
"CC(=O)N[C@H](CCCCN)C(=O)N[C@H](CC(C)C)C(=O)N[C@H](CCCN)C(=O)N[C@H](CO)C(=O)N[C@H](CC(C)C)C(=O)N[C@H](CC(C)C)C(=O)N[C@H](CCCN)C(=O)N[C@@H](C(=O)N[C@H](CC(C)C)C(=O)N[C@H](CO)C(=O)N[C@H](CCCN)C(=O)N[C@H](C)C(=O)N[C@H](C)C(=O)N[C@H](C)C(=O)N[C@H](C)C(=O)N[C@H](C)C(=O)N[C@H](CC(C)C)C(=O)N[C@H](CCCN)C(=O)N[C@@H](C(=O)N[C@H](CC(C)C)C(=O)N[C@H](CC(C)C)C(=O)N[C@H](CCCN)C(=O)N[C@H](C)C(=O)N[C@H](CC(C)C)C(=O)N[C@H](CO)C(=O)N[C@H](CCCN)C(N)=O)[C@H](C)O)[C@H](C)O [D85(K13A/K16A)-(Lys^1-6Orn-1), Ac-KL(Orn)SLL(Orn)TLS(Orn)AAAAAL(Orn)TLL(Orn)ALS(Orn)-amide]",MIC MB9941,"[1]; strain MB9941, Mueller-Hinton medium, 37° C.",2.9 µM
same,MIC MB9949,"[1]; strain MB9949, Mueller-Hinton medium, 37° C.",2.9 µM
same,MIC MB9951,"[1]; strain MB9951, Mueller-Hinton medium, 37° C.",1.5 µM
same,MIC MB9952,"[1]; strain MB9952, Mueller-Hinton medium, 37° C.",1.5 µM
same,MIC MB9953,"[1]; strain MB9953, Mueller-Hinton medium, 37° C.",1.5 µM
same,MIC MB9955,"[1]; strain MB9955, Mueller-Hinton medium, 37° C.",1.5 µM
same,MIC MB9963,"[1]; strain MB9963, Mueller-Hinton medium, 37° C.",2.9 µM
same,MIC 101887,[2]; strain 101887 (lower line),3.0 µM
same,MIC 961997,[2]; strain 961997 (lower line),1.5 µM
same,MIC 963618,[2]; strain 963618 (lower line),1.5 µM
same,MIC 964304,[2]; strain 964304 (lower line),1.5 µM
same,MIC 977751,[2]; strain 977751 (lower line),6.0 µM
same,MIC 981653,[2]; strain 981653 (lower line),1.5 µM
same,MIC 1002956,[2]; strain 1002956 (lower line),1.5 µM
same,MIC 1007660,[2]; strain 1007660 (lower line),1.5 µM
same,MIC 1010282,[2]; strain 1010282 (lower line),1.5 µM
same,MIC 1035166,[2]; strain 1035166 (lower line),1.5 µM
same,MIC No serum,A. baumannii strain 649,1.5 µM
"CC(=O)N[C@H](CCCCN)C(=O)N[C@H](CC(C)C)C(=O)N[C@@H](CCN)C(=O)N[C@H](CO)C(=O)N[C@H](CC(C)C)C(=O)N[C@H](CC(C)C)C(=O)N[C@@H](CCN)C(=O)N[C@@H](C(=O)N[C@H](CC(C)C)C(=O)N[C@H](CO)C(=O)N[C@@H](CCN)C(=O)N[C@H](C)C(=O)N[C@H](CCCCN)C(=O)N[C@H](C)C(=O)N[C@H](C)C(=O)N[C@H](CCCCN)C(=O)N[C@H](CC(C)C)C(=O)N[C@@H](CCN)C(=O)N[C@@H](C(=O)N[C@H](CC(C)C)C(=O)N[C@H](CC(C)C)C(=O)N[C@@H](CCN)C(=O)N[C@H](C)C(=O)N[C@H](CC(C)C)C(=O)N[C@H](CO)C(=O)N[C@H](CO)C(N)=O)[C@H](C)O)[C@H](C)O [D102(Lys^1Ser^26-5Dab-1), Ac-KL(L-Dab)SLL(L-Dab)TLS(L-Dab)AKAAKL(L-Dab)TLL(L-Dab)ALS(Ser)-amide]",MIC MB9941,[1]; [4],0.4 µM
same,MIC MB9949,[1]; [4],0.7 µM
same,MIC MB9951,[1]; [4],0.7 µM
same,MIC MB9952,[1]; [4],0.7 µM
same,MIC MB9953,[1]; [4],1.4 µM
same,MIC MB9955,[1]; [4],0.7 µM
same,MIC MB9963,[1]; [4],0.7 µM
same,MIC 101887,[2]; [5],0.7 µM
same,MIC 961997,[2]; [5],1.5 µM
same,MIC 963618,[2]; [5],0.4 µM
same,MIC 964304,[2]; [5],0.7 µM
same,MIC 977751,[2]; [5],0.7 µM
same,MIC 981653,[2]; [5],0.4 µM
same,MIC 1002956,[2]; [5],0.4 µM
same,MIC 1007660,[2]; [5],0.4 µM
same,MIC 1010282,[2]; [5],0.7 µM
same,MIC 1035166,[2]; [5],0.7 µM
same,HC50 Fold Improvement,human red blood cells,>177
Ac-ELEKGGLEGEKGGKELEK-NH2 [random coil control peptide (RC)],binding result,[3],no binding
